Measurements taken from ChEMBL document CHEMBL1125663, “Function of negative charge in the "address domain" of deltorphins” (J Med Chem, 1991).
Square brackets hold non-standard residues; d marks the D form. Peptide text beside a SMILES is read from it.

What was measured:
Format in all cases: cell membranes
[1] = biological target: T1, Delta-type opioid receptor (Rattus norvegicus, UniProt P33533); assay: Binding affinity against Opioid receptor delta 1 in P2 membrane preparation of rat brain by [3H]DADLE displacement.
Mu-type opioid receptor [2] = biological target: T2, Mu-type opioid receptor (Rattus norvegicus, UniProt P33535); assay: Binding affinity against Opioid receptor mu 1 in P2 membrane preparation of rat brain by [3H]DAGO displacement.
[3] = biological target: T1, Delta-type opioid receptor; assay: Inhibition of [3H]-DADLE binding to opioid receptor delta in P2 membrane preparation of rat brain
Mu-type opioid receptor [4] = biological target: T2, Mu-type opioid receptor; assay: Inhibition of [3H]DAGO binding to trat brain opioid receptor mu in P2 membrane

T2 sequence (P33535 whole entry): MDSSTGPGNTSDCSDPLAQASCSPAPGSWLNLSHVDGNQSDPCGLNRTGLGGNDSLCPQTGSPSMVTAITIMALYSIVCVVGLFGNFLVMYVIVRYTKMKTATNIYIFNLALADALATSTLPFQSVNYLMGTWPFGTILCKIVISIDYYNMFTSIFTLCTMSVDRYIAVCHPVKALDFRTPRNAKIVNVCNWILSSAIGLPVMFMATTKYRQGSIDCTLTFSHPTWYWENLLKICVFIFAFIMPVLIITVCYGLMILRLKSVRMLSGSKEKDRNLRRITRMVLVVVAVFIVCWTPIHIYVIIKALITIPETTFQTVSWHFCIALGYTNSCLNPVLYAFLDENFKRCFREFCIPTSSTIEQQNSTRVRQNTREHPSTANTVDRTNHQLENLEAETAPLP
T1 sequence (P33533 whole entry): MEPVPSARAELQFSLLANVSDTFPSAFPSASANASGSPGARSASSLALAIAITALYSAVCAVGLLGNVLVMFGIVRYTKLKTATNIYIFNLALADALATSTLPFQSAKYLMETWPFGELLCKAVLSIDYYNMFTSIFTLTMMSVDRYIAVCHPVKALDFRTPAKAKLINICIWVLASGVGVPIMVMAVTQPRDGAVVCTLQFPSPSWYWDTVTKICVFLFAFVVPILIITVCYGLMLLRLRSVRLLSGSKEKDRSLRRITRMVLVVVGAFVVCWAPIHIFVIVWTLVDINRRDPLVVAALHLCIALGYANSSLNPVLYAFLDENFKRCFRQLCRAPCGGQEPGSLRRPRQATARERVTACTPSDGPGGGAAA

SMILES	Ki [1]	Ki (Mu-type opioid receptor [2])	Ki [3]	Ki (Mu-type opioid receptor [4])
CSCC[C@H](NC(=O)[C@H](CC(C)C)NC(=O)[C@H](Cc1cnc[nH]1)NC(=O)[C@H](Cc1ccccc1)NC(=O)[C@@H](CCSC)NC(=O)[C@@H](N)Cc1ccc(O)cc1)C(=O)N[C@@H](CC(=O)O)C(N)=O [DELTORPHIN A] (H-Y[dM]FHLMD-NH2)	0.12 nM	336 nM	–	–
CSCC[C@H](NC(=O)[C@H](CC(=O)O)NC(=O)[C@H](CC(=O)O)NC(=O)[C@H](Cc1ccccc1)NC(=O)[C@@H](CCSC)NC(=O)[C@@H](N)Cc1ccc(O)cc1)C(=O)N[C@@H](Cc1c[nH]cn1)C(N)=O	1900 nM	1570 nM	–	–
CC(C)[C@H](NC(=O)[C@H](CC(N)=O)NC(=O)[C@H](Cc1ccccc1)NC(=O)[C@H](C)NC(=O)[C@@H](N)Cc1ccc(O)cc1)C(=O)N[C@H](C(=O)NCC(N)=O)C(C)C (H-YAFNVVG-NH2)	–	–	0.65 nM	176 nM
CSCC[C@@H](NC(=O)[C@@H](N)Cc1ccc(O)cc1)C(=O)N[C@@H](Cc1ccccc1)C(=O)N[C@@H](Cc1cnc[nH]1)C(=O)N[C@@H](CC(C)C)C(=O)N[C@@H](CC(=O)O)C(=O)N[C@@H](CC(=O)O)C(=O)O	6.01 nM	2090 nM	–	–
CC(C)[C@H](NC(=O)CNC(=O)[C@H](Cc1ccccc1)NC(=O)[C@H](C)NC(=O)[C@@H](N)Cc1ccc(O)cc1)C(=O)N[C@H](C(=O)N[C@@H](CC(=O)O)C(=O)O)C(C)C (H-YAFGVVD-OH)	8.79 nM	57.5 nM	–	–
CSCC[C@H](NC(=O)[C@H](CC(C)C)NC(=O)[C@H](CC(=O)O)NC(=O)[C@H](Cc1ccccc1)NC(=O)[C@@H](CCSC)NC(=O)[C@@H](N)Cc1ccc(O)cc1)C(=O)N[C@@H](CC(=O)O)C(N)=O	7.71 nM	10600 nM	–	–
CC(C)[C@H](NC(=O)[C@H](CCC(=O)O)NC(=O)[C@H](Cc1ccccc1)NC(=O)[C@@H](C)NC(=O)[C@@H](N)Cc1ccc(O)cc1)C(=O)N[C@H](C(=O)NCC(=O)O)C(C)C [DELTORPHIN]	–	–	7.97 nM	–
CSCC[C@@H](NC(=O)[C@@H](N)Cc1ccc(O)cc1)C(=O)N[C@@H](Cc1ccccc1)C(=O)N[C@@H](Cc1cnc[nH]1)C(=O)N[C@@H](CC(C)C)C(=O)N[C@@H](CC(=O)O)C(=O)N[C@@H](CC(=O)O)C(N)=O	3.08 nM	3410 nM	–	–
CC(C)[C@H](NC(=O)[C@H](Cc1ccccc1)NC(=O)[C@H](C)NC(=O)[C@@H](N)Cc1ccc(O)cc1)C(=O)N[C@H](C(=O)N[C@@H](CC(=O)O)C(=O)NCC(N)=O)C(C)C (H-YAFVVDG-NH2)	9.42 nM	149 nM	–	–
CC(C)[C@H](NC(=O)[C@H](CC(=O)O)NC(=O)[C@H](Cc1ccccc1)NC(=O)[C@@H](C)NC(=O)[C@@H](N)Cc1ccc(O)cc1)C(=O)N[C@H](C(=O)NCC(N)=O)C(C)C [DELTORPHIN C]	–	–	0.21 nM	387 nM
CC(C)[C@H](NC(=O)[C@H](CC(=O)O)NC(=O)[C@@H](NC(=O)[C@H](Cc1ccccc1)NC(=O)[C@H](C)NC(=O)[C@@H](N)Cc1ccc(O)cc1)C(C)C)C(=O)NCC(N)=O (H-YAFVDVG-NH2)	1.23 nM	275 nM	–	–
C[C@@H](NC(=O)[C@@H](N)Cc1ccc(O)cc1)C(=O)N[C@@H](Cc1ccccc1)C(=O)NCC(=O)N[C@@H](Cc1ccc(O)cc1)C(=O)N1CCC[C@H]1C(=O)N[C@@H](CO)C(N)=O [DERMORPHIN]	–	0.7 nM	–	–
CSCC[C@H](NC(=O)[C@H](CC(C)C)NC(=O)[C@H](Cc1cnc[nH]1)NC(=O)[C@H](Cc1ccccc1)NC(=O)[C@@H](CCSC)NC(=O)[C@@H](N)Cc1ccc(O)cc1)C(=O)N[C@@H](CC(=O)O)C(C)=O	155 nM	3220 nM	–	–
CSCC[C@H](NC(=O)[C@H](CC(C)C)NC(=O)[C@H](Cc1c[nH]cn1)NC(=O)[C@H](Cc1ccccc1)NC(=O)[C@@H](CCSC)NC(=O)[C@@H](N)Cc1ccc(O)cc1)C(=O)N[C@@H](CC(=O)O)C(=O)O (H-Y[dM]FHLMD-OH)	10.8 nM	2690 nM	–	–
CC(C)[C@H](NC(=O)[C@H](CCC(N)=O)NC(=O)[C@H](Cc1ccccc1)NC(=O)[C@@H](C)NC(=O)[C@@H](N)Cc1ccc(O)cc1)C(=O)N[C@H](C(=O)NCC(=O)O)C(C)C	0.2 nM	153 nM	–	–
C[C@@H](NC(=O)[C@@H](N)Cc1ccc(O)cc1)C(=O)NCC(=O)N(C)[C@@H](Cc1ccccc1)C(=O)NCCO [DAMGO]	180 nM	–	–	–
CSCC[C@H](NC(=O)[C@H](CC(C)C)NC(=O)[C@H](Cc1c[nH]cn1)NC(=O)[C@H](Cc1ccccc1)NC(=O)[C@@H](CCSC)NC(=O)[C@@H](N)Cc1ccc(O)cc1)C(=O)N[C@@H](CC(N)=O)C(N)=O	0.22 nM	119 nM	–	–
CCCC[C@H](NC(=O)[C@H](CC(C)C)NC(=O)[C@H](Cc1cnc[nH]1)NC(=O)[C@H](Cc1ccccc1)NC(=O)[C@@H](CCSC)NC(=O)[C@@H](N)Cc1ccc(O)cc1)C(=O)N[C@@H](CC(=O)O)C(N)=O	0.22 nM	206 nM	–	–
CC(C)[C@H](NC(=O)[C@H](CC(=O)O)NC(=O)[C@H](Cc1ccccc1)NC(=O)[C@H](C)NC(=O)[C@@H](N)Cc1ccc(O)cc1)C(=O)N[C@H](C(=O)NCC(=O)O)C(C)C	6.01 nM	1640 nM	–	–
CC(C)[C@H](NC(=O)[C@H](CCC(=O)O)NC(=O)[C@H](Cc1ccccc1)NC(=O)[C@H](C)NC(=O)[C@@H](N)Cc1ccc(O)cc1)C(=O)N[C@H](C(=O)NCC(=O)O)C(C)C [DELTORPHINE II]	–	–	0.31 nM	–
